# According to patent US20240000680A1, “MONO-HYDROXY OR DI-HYDROXY DERIVATIVES OF POLYUNSATURATED FATTY ACIDS, PRODUCTION METHOD THEREFOR, AND USE THEREOF” (KOLON INDUSTRIES, INC., priority 2019, published 2024):
# Values joined by “and” are separate entries in the source; they are usually repeats but may differ in a detail not shown here. Identical values can stand only once.
# Columns and labels:
# Type in all cases: cell-based
# IL-6 [1] = assay: IL-6 expression in UVB-irradiated HaCaT human keratinocytes (ELISA), Example 6; settings: for IL-6 expression (% of control) Average: UVB +; for IL-6 expression (% of control) Average / expression of IL-6 (Table 7, single component vs complex composition): Con(−) = 100; for reduction of expression of IL-6 compared to Con(−): after UVB irradiation; for expression of IL-6 (Table 7, single component vs complex composition): UVB 20 mJ/cm^2
# Description: In order to identify the synergistic anti-inflammation relieving effect of the SPMs complex composition, the complex compositions (Complexes 1 to 3) of 17-HDHA, Resolvin D5, and Protectin DX and each SPM single material were treated with HaCaT cells, which are human keratinocytes to identify changes in IL-6 expression.
# Specifically, first, human keratinocytes were aliquoted in a 48-well plate at a concentration of 4×10^4 cells/well and cultured at 5% CO2, 37° C. for 24 hours, and then the medium was removed and the starvation state was maintained with DMEM Serum Free media for 24 hours.
# The SPMs complex composition was diluted with DMEM (FBS 2%) to make 0.5, 1, 2, and 5 μg/ml, and then cultured as above and treated with human keratinocytes from which the medium was removed for 1 hour. […] In addition, after collecting the medium, the amount of IL-6 was measured using Human IL-6 DuoSet ELISA (R&D system). The cells adhering to the bottom were washed with DPBS, dissolved with 1N NaOH, and the amount of protein was measured through BCA analysis to measure the amount of IL-6 synthesized per a given protein. In this connection, the IL-6 expression inhibitory effect of the SPMs complex composition of the present invention and each single component was identified by using a case in which nothing was treated as Con(−) and a case in which 10 μM of hydrocortisone was treated as Con(+) after UVB irradiation.
# procollagen = assay: Procollagen synthesis in human dermal fibroblasts (PIP EIA), Example 7; settings: for Procollagen synthesis (% of control) Average: 24 hours; for Procollagen synthesis (% of control) Average / amount of procollagen (Table 10, single component vs complex composition): untreated control = 100; for amount of procollagen compared to untreated control group: single components, Table 8 concentrations; for amount of procollagen (Table 10, single component vs complex composition): concentration not given in Table 10; for amount of procollagen compared to positive control group (50 μM of retinyl palmitate): at a concentration of 1 μg/ml or more
# Description: Collagen, a major component of the extracellular matrix, is synthesized in the form of a precursor called procollagen. The procollagen is known to be cut and isolated from collagen molecules when a polymerization reaction occurs. By measuring the amount of procollagen, the degree of collagen biosynthesis in the cells may be estimated.
# […] In this connection, the effect of the SPM single component and its complex compositions (compositions 1 to 3) was identified by using a case in which nothing was treated as an untreated control group and a case in which 50 μM of retinyl palmitate was treated as Con(+).
# TNF-α [2] = assay: TNF-α expression inhibition in UVB-irradiated human keratinocytes, Example 9; settings: 10 μM; UVB 160 mJ/cm^2; 24 hours
# Description: Specifically, human keratinocytes were aliquoted in a 48-well plate at a concentration of 4×10^4 cells/well and cultured for 24 hours at 5% CO2 and 37° C., then the medium was removed and starvation state was maintained with DMEM Serum Free media for 24 hours.
# The composition 2 was diluted with DMEM (2% FBS) to make 0.5, 1, 2, and 5 μg/ml, and then cultured as above and treated with human keratinocytes from which the medium was removed for 1 hour. Then, for TNF-α expression, the medium was exchanged with 250 μl of DPBS (WelGENE), irradiated with 160 mJ/cm^2 of UVB, and then treated with the SPMs again and cultured for 24 hours. In addition, after collecting the medium, the amount of TNF-α was measured using Human TNF-α DuoSet ELISA (R&D system), respectively. The cells adhering to the bottom were washed with DPBS, dissolved with 1N NaOH, and the amount of protein was measured through BCA analysis to measure the amount of TNF-α synthesized per a given protein. In this connection, the effect of the SPMs complex composition was identified by using a case in which nothing was treated as a negative control group and a case in which 10 μM of hydrocortisone was treated as a positive control group.
# IL-6 [3] = assay: IL-6 expression inhibition in UVB-irradiated human keratinocytes (ELISA), Example 4-2; settings: 10 ppm; UVB 160 mJ/cm^2; 24 hours
# Description: (§1) Human keratinocytes were aliquoted in a 48-well plate at a concentration of 4×10^4 cells/well and cultured for 24 hours at 5% CO2 and 37° C., then the medium was removed and starvation state was maintained with DMEM Serum Free media for 24 hours.
# (§2) The SPM 1 and SPM 2 were diluted with DMEM (2% FBS) to make 1 ppm, and then diluted sequentially to 0.1, 0.01 and 0.001 ppm, and then cultured as above and treated with human keratinocytes from which the medium was removed for 1 hour. Then, for TNF-α or IL-6 expression, the medium was exchanged with 250 μl of DPBS (WelGENE), irradiated with 160 mJ/cm^2 of UVB, and then treated with the SPM 1 and SPM 2 again and cultured for 24 hours. In addition, after collecting the medium, the amount of TNF-α was measured using Human TNF-α DuoSet ELISA (R&D system), and the amount of IL-6 was measured using Human IL-6 DuoSet ELISA (R&D system), respectively. The cells adhering to the bottom were washed with DPBS, dissolved with 1N NaOH, and the amount of protein was measured through BCA analysis to measure the amount of TNF-α or IL-6 synthesized per a given protein. In this connection, the effect of the two reaction products SPM 1 and SPM 2 was identified by using a case in which nothing was treated as a negative control group and a case in which 10 ppm of dexamethasone was treated as a positive control group.
# TNF-α [4] = assay: TNF-α expression inhibition in UVB-irradiated human keratinocytes (ELISA), Example 4-2; settings: 10 ppm; UVB 160 mJ/cm^2; 24 hours
# Description: as §1, §2
# MMP-1 [5] = assay: Collagenase (MMP-1) expression inhibition in UVB-irradiated human dermal fibroblasts (ELISA), Example 4-4; settings: 6 ppm; UVB 100 mJ/cm^2; 48 hours
# Description: (§3) MMPs (matrix metalloproteinases) are enzymes with proteolytic activity, and by decomposing proteins constituting the extracellular matrix, they have an important effect on the binding of cells and proteins constituting the extracellular matrix. There are 28 types of MMPs, of which MMP-1 is an enzyme that decomposes collagen. In this example, the expression level of MMP-1 in cells was identified.
# After culturing human dermal fibroblasts for 24 hours, the medium was exchanged with DPBS (WelGENE) at a concentration of 250 μl/well, and irradiated with 100 mJ/cm^2 of UVB. Then, the SPM 1 and SPM 2 were treated with DMEM (2% FBS) diluted to a concentration of 0.01, 0,1 and 1 ppm, respectively, and cultured for 48 hours. After collecting the cultured cell medium, the amount of MMP-1 was measured using a human total MMP-1 ELISA kit (R&D systems, DY901). At this connection, the effect of the two reaction products SPM 1 and SPM 2 was identified by using a case in which nothing was treated as a negative control group and a case in which 6 ppm of retinoic acid was treated as a positive control group.
# MMP-1 [6] = assay: Collagenase (MMP-1) expression inhibition in UVB-irradiated human dermal fibroblasts, Example 8; settings: 20 μM; UVB 100 mJ/cm^2; 48 hours
# Description: as §3
# Specifically, after culturing human dermal fibroblasts for 24 hours, the medium was exchanged with DPBS (WelGENE) at a concentration of 250 μl/well, and irradiated with 100 mJ/cm^2 of UVB. Then, the composition 2 was treated with DMEM (2% FBS) diluted to a concentration of 0.1, 1, 2, and 5 ppm, respectively, and cultured for 48 hours. After collecting the cultured cell medium, the amount of MMP-1 was measured using a human total MMP-1 ELISA kit (R&D systems, DY901). At this connection, the effect of composition 2 was identified by using a case in which nothing was treated as a negative control group and a case in which 20 μM of retinoic acid was treated as a positive control group.
# filaggrin = assay: Filaggrin gene expression in human keratinocytes (RT-PCR), Example 12; settings: 50 ppm
# Description: (§4) Filaggrin, loricrin, and involucrin are known as core proteins constituting the skin barrier. Among them, filaggrin is a protein produced by decomposition of profilagrin, which constitutes keratohyalin granule (KG) present in granule cells of the epidermis, and plays an important role in the skin barrier by aggregating keratin filaments in keratinocytes. Accordingly, it was attempted to identify the skin barrier strengthening effect by identifying he expression of filaggrin and loricrin by the sample.
# (§5) Human keratinocytes were cultured in DMEM medium under the same conditions as in Example 9. In order to identify the gene expression related to skin barrier improvement ability, the cultured cells were treated with the SPMs complex composition of the present invention by concentration and cultured, and then RNA was extracted and RT-PCR was performed. The amplified gene was analyzed using the Gel documentation system and Image J program.
# loricrin = assay: Loricrin gene expression in human keratinocytes (RT-PCR), Example 12; settings: 50 ppm
# Description: as §4, §5
Compound,IL-6 expression (% of control) Average (IL-6 [1]; 0.1 μg/ml),IL-6 expression (% of control) Average (IL-6 [1]; 1 μg/ml),IL-6 expression (% of control) Average (IL-6 [1]; 2 μg/ml),reduction of expression of IL-6 compared to Con(−) (IL-6 [1]; 2 μg/ml) [%],IL-6 expression (% of control) Average (IL-6 [1]; 5 μg/ml),"expression of IL-6 (Table 7, single component vs complex composition) (IL-6 [1]; 2 μg/ml)",Procollagen synthesis (% of control) Average (procollagen; 0.01 μg/ml),Procollagen synthesis (% of control) Average (procollagen; 0.1 μg/ml),Procollagen synthesis (% of control) Average (procollagen; 1 μg/ml),Procollagen synthesis (% of control) Average (procollagen; 2 μg/ml),amount of procollagen compared to untreated control group (procollagen),"amount of procollagen (Table 10, single component vs complex composition) (procollagen)",other results
"CC/C=C\CC(O)/C=C/C=C\C/C=C\C/C=C\C/C=C\CCC(=O)O (racemic) [Composition 17S-HDHA, (±) 17-hydroxy (dihydroxy)-4Z, 7Z, 10Z, 13Z, 15E, 19Z-docosahexaenoic acid]",89.63 % of control,83 % of control,89.17 % of control,10.8,81.66 % of control,89.17,212.76 % of control,237.76 % of control,235.8 % of control,255.32 % of control,greater amount of procollagen than the untreated control group,255.32,–
"C[C@]12CCC(=O)C=C1CC[C@@H]1[C@@H]2[C@@H](O)C[C@@]2(C)[C@H]1CC[C@]2(O)C(=O)CO [Con(+) H.C., hydrocortisone, reference compound]",–,–,–,–,–,–,–,–,–,–,–,–,IL-6 expression (% of control) Average (IL-6 [1]; 10 μM): 31.23 % of control and 42.82 % of control; reduction of UVB-increased expression of TNF-α (TNF-α [2]): about 52%
"CCCCCCCCCCCCCCCC(=O)OC/C=C(C)/C=C/C=C(C)/C=C/C1=C(C)CCCC1(C)C [Con(+) R.P., retinyl palmitate, reference compound]",–,–,–,–,–,–,–,–,–,–,–,–,Procollagen synthesis (% of control) Average (procollagen; 50 μM): 249.88 % of control and 240.2 % of control
"CC/C=C\C[C@H](O)/C=C/C=C\C=C\[C@@H](O)C/C=C\C/C=C\CCC(=O)O [PDX, 10S, 17S-dihydroxy-4Z,7Z,11E,13Z,15E,19Z-docosahexaenoic acid]",95.36 % of control,102.69 % of control,88.13 % of control,11.8,86.72 % of control,88.13,237.15 % of control,244.1 % of control,251.41 % of control,254.1 % of control,greater amount of procollagen than the untreated control group,254.1,amount of procollagen compared to positive control group (50 μM of retinyl palmitate) (procollagen): greater amount of procollagen was identified compared to the positive control group
"CC/C=C\C[C@H](O)/C=C/C=C\C/C=C\C=C\[C@@H](O)C/C=C\CCC(=O)O [RvD5, 7S, 17S-dihydroxy-4Z, 8E, 10Z, 13Z, 15E, 19Z-docosahexaenoic acid]",99.58 % of control,109.86 % of control,99.49 % of control,0.5,83.38 % of control,99.49,245.68 % of control,248 % of control,249.34 % of control,255.32 % of control,greater amount of procollagen than the untreated control group,255.32,amount of procollagen compared to positive control group (50 μM of retinyl palmitate) (procollagen): greater amount of procollagen was identified compared to the positive control group
C[C@@H]1C[C@H]2[C@@H]3CCC4=CC(=O)C=C[C@]4(C)[C@@]3(F)[C@@H](O)C[C@]2(C)[C@@]1(O)C(=O)CO [dexamethasone],–,–,–,–,–,–,–,–,–,–,–,–,reduction of UVB-increased expression of IL-6 (IL-6 [3]): about 88%; reduction of UVB-increased expression of TNF-α (TNF-α [4]): about 35%
CC1=C(/C=C/C(C)=C/C=C/C(C)=C/C(=O)O)C(C)(C)CCC1 [retinoic acid],–,–,–,–,–,–,–,–,–,–,–,–,reduction of UVB-increased expression of MMP-1 (MMP-1 [5]): about 70%; reduction of UVB-increased expression of MMP-1 (MMP-1 [6]): about 70%
hyaluronic acid,–,–,–,–,–,–,–,–,–,–,–,–,increase in expression of filaggrin (filaggrin): 52.6%; increase in expression of loricrin (loricrin): 97.7%
